PubChem BioAssay (NCI)
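A five-concentration, 48-hour dose response in 96-well plates underlies each endpoint, interpolated linearly between surrounding concentrations. GI50 is the concentration that inhibits growth by half. TGI: total growth inhibition.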

Experiments:
Test in all cases: inhibition of tumour cell growth, NCI panel, 48 h
[1] = tested on: CCRF-CEM leukemia
[2] = tested on: EKVX NSCLC
[3] = tested on: HCC-2998 colon
[4] = tested on: HT29 colon
[5] = tested on: IGROV1 ovarian
[6] = tested on: KM12 colon
[7] = tested on: RXF 393 renal
[8] = tested on: SK-MEL-5 melanoma
[9] = tested on: SNB-19 CNS
[10] = tested on: UO-31 renal

SMILES | TGI [1] [µM] | TGI [2] [µM] | TGI [3] [µM] | TGI [4] [µM] | TGI [5] [µM] | TGI [6] [µM] | TGI [7] [µM] | TGI [8] [µM] | TGI [9] [µM] | TGI [10] [µM] | GI50 [1] [µM] | GI50 [2] [µM] | GI50 [3] [µM] | GI50 [4] [µM] | GI50 [6] [µM] | GI50 [7] [µM] | GI50 [8] [µM] | GI50 [9] [µM] | GI50 [10] [µM] | GI50 [5] [µM]
C=C1C(=O)O[C@H]2C[C@@H]1C(=O)CC(C)CCCC(C)=CCC[C@@]2(C)O (some centres undefined) | > 25 | > 25 | > 25 | > 25 | > 25 | > 25 | > 25 | > 25 | > 25 | > 25 | – | – | – | – | – | – | – | – | – | –
COc1cc2nccc(Oc3ccc(NC(=O)c4cn(C(C)C)c(=O)n(-c5ccc(F)cc5)c4=O)cc3F)c2cc1OC | > 100 | > 100 | > 100 | > 100 | > 100 | > 100 | > 100 | > 100 | > 100 | > 40 | > 100 | > 30.1 | > 100 | 6.25 | 0.0453 | > 21.1 | > 100 | > 100 | 3.65 | –
CCn1c2ccccc2c2cc(C(=O)c3ccc(C)c4ccccc34)ccc21 | > 100 | > 100 | 3.8 | 0.729 | > 100 | 14.9 | 2.71 | 1.41 | > 100 | > 100 | 0.359 | 0.528 | 0.549 | 0.263 | 0.362 | 0.35 | 0.319 | 0.438 | 0.716 | 0.635
COc1cc2cnc3c4cc(OCc5ccccc5)ccc4ccc3c2cc1OC | 17.3 | > 100 | > 100 | > 100 | > 100 | > 100 | 47.6 | 76 | > 100 | > 100 | – | – | – | – | – | – | – | – | – | –
CS(=O)(=O)N(c1cc(-c2ccc3ncnc(Nc4ccc(F)c(Cl)c4)c3c2)cnc1Cl)S(C)(=O)=O | > 100 | 5.19 | 8.43 | 13.9 | 0.786 | 9.81 | 3.4 | 2.42 | 9.9 | 2.99 | 0.527 | 0.649 | 1.58 | 1.07 | 2.43 | 0.711 | 0.978 | 0.897 | 0.27 | 0.196
Cc1ccc(C(=O)NC2CC2)cc1-c1ccc2[nH]ncc2c1 | > 25 | > 25 | > 25 | > 25 | > 25 | > 25 | > 25 | > 25 | > 25 | > 25 | > 25 | > 25 | > 25 | > 25 | > 25 | > 25 | > 25 | > 25 | > 22.9 | > 25
C[CH2][Sn]([CH2]C)([O]C(=O)c1ccc(F)cc1)[O]C(=O)c1ccc(F)cc1 | 31.4 | > 100 | > 100 | > 100 | > 100 | > 100 | 28.8 | > 100 | 30.5 | > 56.3 | 8.75 | > 100 | 90.9 | 63.8 | > 100 | 13.7 | 39.6 | 16.7 | 32.8 | > 80.5
Nc1c2ccccc2nc2c(C(=O)Nc3ccc(S(N)(=O)=O)cc3)cccc12 | > 100 | > 100 | > 100 | > 100 | > 100 | > 100 | > 100 | > 100 | > 100 | > 100 | – | – | – | – | – | – | – | – | – | –
C[C@H]1C=C2C(=O)O[C@H]3CC[C@@H](C1)[C@@]23O | 6.05 | 8.36 | 26.8 | 16.9 | 19 | 12.7 | 9.02 | 16.6 | 30.6 | 32.1 | – | – | – | – | – | – | – | – | – | –
CC1c2[nH]c3ccccc3c2CCN1O (centres undefined) | > 100 | > 100 | > 100 | > 100 | > 100 | > 100 | > 100 | > 100 | > 100 | > 100 | – | – | – | – | – | – | – | – | – | –
COc1ccc([C@@H]2OC(=O)C3C2C(=O)O[C@H]3c2ccc(OC)c(OC)c2)cc1OC (some centres undefined) | > 100 | > 100 | > 100 | > 100 | > 100 | > 100 | > 100 | > 100 | > 100 | > 100 | – | – | – | – | – | – | – | – | – | –
O=P(O)(O)OCC1OC(n2cnc3c(NCc4ccccc4)ncnc32)C(O)C1O (centres undefined) | > 100 | 80.1 | 11.8 | > 36 | 23 | > 100 | 13.8 | > 100 | > 100 | 32.4 | 3.76 | 2.97 | 2.01 | 2.27 | 12.7 | 1.46 | 17 | 4.18 | 3.38 | 3.52
